Data published in patent US11186590B2, “Somatostatin modulators and uses thereof” (CRINETICS PHARMACEUTICALS, INC., priority 2018, dated 2021).

Columns and labels:
hSSTR4 = hSSTR4 (Homo sapiens (Human), UniProt P31391); test: selectivity for inhibition of cAMP via hSSTR2 vs. hSSTR4; assay type: cell-based
Description: General overview: All five SSTR subtypes are Gi coupled G-protein coupled receptors (GPCRs) that lead to decreases in intracellular cyclic AMP (cAMP) when activated by an agonist. Therefore, measurement of intracellular cAMP levels can be used to assess whether compounds of the invention are agonists of SSTR subtypes (John Kelly, Troy Stevens, W. Joseph Thompson, and Roland Seifert, Current Protocols in Pharmacology, 2005, 2.2.1-2.2). One example of an intracellular cAMP assay is described below.
Four days prior to the assay, 5,000 Chinese hamster ovary cells (CHO-K1, ATCC #CCL-61) stably expressing the human somatostatin receptor subtype 2 are plated in each well of a 96-well tissue culture-treated plate in Ham's F12 growth media (ThermoFisher #10-080-CM) supplemented with 10% donor bovine serum (Gemini Bio-Products #100-506), 100 U/mL penicillin; 100 ug/mL streptomycin; 2 mM L-glutamine (Gemini Bio-Products #400-110) and 0.2 mg/mL hygromycin B (GoldBio #31282-04-9). The cells are cultured at 37° C., 5% CO2 and 95% humidity. On the day of the assay, the media is aspirated and the cells are treated with 50 μL of 1.6 μM NKH477 (Sigma #N3290) plus various dilutions of compounds of the invention in assay buffer [1× Hank's Balanced Salt Solution (ThermoFisher #SH3058802), 0.5 mM HEPES pH 7.4, 0.1% bovine serum albumin, 0.2 mM 3-Isobutyl-1-methylxanthine (IBMX, VWR #200002-790)]. The cells are incubated for 20 minutes at 37° C. (the final concentration of the compounds of the invention are typically 0-10,000 nM). The cells are treated with 50 μL of lysis buffer (HRTF cAMP kit, Cisbio). The lysate is transferred to 384-well plates and cAMP detection and visualization antibodies are added and incubated for 1-24 hours at room temperature. The time-resolved fluorescent signal is read with a Tecan M1000Pro multiplate reader. The intracellular cAMP concentrations are calculated by regression to a standard curve and are plotted vs. the concentration of the compounds of the invention and the EC50 of the compounds are calculated using standard methods. All data manipulations are in GraphPad Prism v6.

[1] = Liver microsomal stability assay; assay type: in vitro ADME; settings: human liver microsomes, 0.5 mg/mL protein, 37° C.
Description: The in vitro stabilities of compounds of interest were determined for various species using pooled male and female human, pooled male Sprague-Dawley rat, pooled male Cynomolgus monkey, and pooled male Beagle dog liver microsomes at microsomal protein concentrations of 0.5 mg/mL. Incubations were carried out in a potassium phosphate buffer (50 mM). The NADPH-generating system was composed of NADP+ (1 mM), magnesium chloride (3 mM), EDTA (1 mM), glucose-6-phosphate (5 mM) and glucose-6-phosphate dehydrogenase (1 Unit/mL) for all experiments. Compounds of interest in DMSO were added to achieve a final incubation concentration of […] (final DMSO content was 0.1% v/v and final acetonitrile content was 0.9%). The final incubation volume was 400 μL. Incubations were conducted at 37° C. for 0, 5, 10, 20, 40 and 60 minutes in a shaking water bath and terminated by removing 50 µL of incubation mixture and adding to 100 μL of ice cold acetonitrile containing internal standard. Following precipitation by centrifugation at 3500 rpm and 4° C. for 30 minutes, compounds of interest and internal standard were analyzed in the resultant supernatant using a multiple reaction monitoring (MRM) LC-MS/MS method. MS conditions were optimized for each analyte.
The following Table (Table D) illustrates human liver microsomal stability of exemplary compounds.

hSSTR4, sequence (P31391 whole entry): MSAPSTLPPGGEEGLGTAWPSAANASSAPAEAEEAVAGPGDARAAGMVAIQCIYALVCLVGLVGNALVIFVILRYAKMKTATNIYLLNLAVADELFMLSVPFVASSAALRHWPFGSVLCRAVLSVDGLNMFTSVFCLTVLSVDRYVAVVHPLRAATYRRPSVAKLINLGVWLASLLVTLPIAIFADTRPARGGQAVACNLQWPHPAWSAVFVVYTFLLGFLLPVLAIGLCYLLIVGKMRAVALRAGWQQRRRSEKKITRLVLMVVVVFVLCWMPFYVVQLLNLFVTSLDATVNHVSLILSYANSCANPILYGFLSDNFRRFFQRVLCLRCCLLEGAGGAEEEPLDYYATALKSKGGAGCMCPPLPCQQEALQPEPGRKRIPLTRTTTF

Structure (SMILES)	hSST4/hSST2 (ratio) (hSSTR4; Table B)	hSST4/hSST2 (ratio) (hSSTR4; Table C)	HLM t1/2 [1]
COc1cc(C#N)cc2[nH]c(-c3c(N)ncc(-c4cc(C)cc(F)c4)c3N3CCC(N)CC3)nc12 [Compound 1-1, 2-[2-amino-4-(4-aminopiperidin-1-yl)-5-(3-fluoro-5-methylphenyl)pyridin-3-yl]-4-methoxy-1H-1,3-benzodiazole-6-carbonitrile]	a (a = above 50)	–	–
COC(=O)c1ncc(-c2cc(C)cc(F)c2)c(N2CCC(N)CC2)c1-c1nc2cc(F)cc(OC)c2[nH]1 [Compound 2-1, methyl 4-(4-aminopiperidin-1-yl)-3-(6-fluoro-4-methoxy-1H-1,3-benzodiazol-2-yl)-5-(3-fluoro-5-methylphenyl)pyridine-2-carboxylate]	d (d = between 1 and 2.5)	–	–
COc1cc(F)cc2nc(-c3c(C#N)ncc(-c4cc(C)cc(F)c4)c3N3CCC(N)CC3)[nH]c12 [Compound 2-2, 4-(4-aminopiperidin-1-yl)-3-(6-fluoro-4-methoxy-1H-1,3-benzodiazol-2-yl)-5-(3-fluoro-5-methylphenyl)pyridine-2-carbonitrile]	e (e = between 1 and 0.5)	–	–
COc1cc(F)cc2nc(-c3c(C(N)=O)ncc(-c4cc(C)cc(F)c4)c3N3CCC(N)CC3)[nH]c12 [Compound 2-3, 4-(4-aminopiperidin-1-yl)-3-(6-fluoro-4-methoxy-1H-1,3-benzodiazol-2-yl)-5-(3-fluoro-5-methylphenyl)pyridine-2-carboxamide]	b (b = between 15 and 50)	–	–
Nc1ncc(-c2cccc(F)c2)c(N2CC[C@@H]3NCCO[C@H]3C2)c1-c1nc2c(F)cc(F)cc2[nH]1 [Compound 3-3, 4-[(4αS,8αS)-octahydro-1H-pyrido[3,4-b][1,4]oxazin-6-yl]-3-(4,6-difluoro-1H-1,3-benzodiazol-2-yl)-5-(3-fluorophenyl)pyridin-2-amine]	–	c (c = between 2.5 and 15)	–
COc1cc(F)cc2[nH]c(-c3c(N)ncc(-c4cccc(F)c4)c3N3CC[C@@H]4NCCO[C@H]4C3)nc12 [Compound 3-9, 4-[(4αS,8αS)-octahydro-1H-pyrido[3,4-b][1,4]oxazin-6-yl]-3-(6-fluoro-4-methoxy-1H-1,3-benzodiazol-2-yl)-5-(3-fluorophenyl)pyridin-2-amine]	–	c (c = between 2.5 and 15)	–
CNc1ncc(-c2cccc(F)c2)c(N2CC[C@@H]3NCCO[C@H]3C2)c1-c1nc2c(OC)cc(F)cc2[nH]1 [Compound 3-10, 4-[(4αS,8αS)-octahydro-1H-pyrido[3,4-b][1,4]oxazin-6-yl]-3-(6-fluoro-4-methoxy-1H-1,3-benzodiazol-2-yl)-5-(3-fluorophenyl)-N-methylpyridin-2-amine]	–	a (a = above 50)	–
COc1cc(C#N)cc2[nH]c(-c3c(N)ncc(-c4cccc(F)c4)c3N3CC[C@@H]4NCCO[C@H]4C3)nc12 [Compound 3-11, 2-{4-[(4αS,8αS)-octahydro-1H-pyrido[3,4-b][1,4]oxazin-6-yl]-2-amino-5-(3-fluorophenyl)pyridin-3-yl}-4-methoxy-1H-1,3-benzodiazole-6-carbonitrile]	–	a (a = above 50)	–
CNc1ncc(-c2cccc(F)c2)c(N2CC[C@@H]3NCCO[C@H]3C2)c1-c1nc2c(OC)cc(C#N)cc2[nH]1 [Compound 3-12, 2-[4-[(4αS,8αS)-octahydro-1H-pyrido[3,4-b][1,4]oxazin-6-yl]-5-(3-fluorophenyl)-2-(methylamino)pyridin-3-yl]-4-methoxy-1H-1,3-benzodiazole-6-carbonitrile]	–	a (a = above 50)	–
CNc1ncc(-c2cc(F)cc(Cl)c2)c(N2CC[C@@H]3NCCO[C@H]3C2)c1-c1nc2c(OC)cc(F)cc2[nH]1 [Compound 3-13, 4-[(4αS,8αS)-octahydro-1H-pyrido[3,4-b][1,4]oxazin-6-yl]-5-(3-chloro-5-fluorophenyl)-3-(6-fluoro-4-methoxy-1H-1,3-benzodiazol-2-yl)-N-methylpyridin-2-amine]	–	a (a = above 50)	–
COc1cc(F)cc2[nH]c(-c3c(N)ncc(-c4cc(F)cc(Cl)c4)c3N3CC[C@@H]4OCCN[C@H]4C3)nc12 [Compound 3-17, 4-[(4αS,8αS)-octahydro-1H-pyrido[3,4-b][1,4]oxazin-6-yl]-5-(3-chloro-5-fluorophenyl)-3-(6-fluoro-4-methoxy-1H-1,3-benzodiazol-2-yl)pyridin-2-amine]	–	c (c = between 2.5 and 15)	–
COc1cc(C#N)cc2[nH]c(-c3c(N)ncc(-c4cc(F)cc(F)c4)c3N3CC[C@@H]4NCCO[C@H]4C3)nc12 [Compound 3-18, 2-{4-[(4αS,8αS)-octahydro-1H-pyrido[3,4-b][1,4]oxazin-6-yl]-2-amino-5-(3,5-difluorophenyl)pyridin-3-yl}-4-methoxy-1H-1,3-benzodiazole-6-carbonitrile]	–	b (b = between 15 and 50)	1.65 h
N#Cc1cc(F)c2nc(-c3c(N)ncc(-c4cc(F)cc(F)c4)c3N3CC[C@@H]4OCCN[C@H]4C3)[nH]c2c1 [Compound 3-19, 2-{4-[(4αS,8αS)-octahydro-1H-pyrido[3,4-b][1,4]oxazin-6-yl]-2-amino-5-(3,5-difluorophenyl)pyridin-3-yl}-4-fluoro-1H-1,3-benzodiazole-6-carbonitrile]	–	b (b = between 15 and 50)	–
